For data set [1] the following is noted: cited from earlier work. The source says:
Amylin, also known as islet amyloid polypeptide, is a peptide hormone that is stored in pancreatic beta-cells and co-secreted with insulin in response to many factors, including glucose, arginine, and fatty acids. Amylin plays a role in inhibiting glucagon secretion and delaying gastric emptying as well as modulating other aspects of food processing and satiety.

Data set [2] concerns beta-site APP-cleaving enzyme 2 (BACE2). The conditions noted are these: cited from earlier work. The text has this: Amylin is a 37-residue peptide with a highly conserved sequence that is present in all mammals. To be fully active, two major post-translational modifications are required: a C-terminal amide (Tyr37) and a disulfide bond between two cysteine residues found at positions 2 and 7 [6]. […] As is true for other amyloidogenic substrates, such as the amyloid β-protein (Aβ), it is likely that multiple amylin proteases exist that work in ...

Data set [3] concerns insulin-degrading enzyme (IDE). Conditions: cited from earlier work. The text has this:
Amylin is a 37-residue peptide with a highly conserved sequence that is present in all mammals. To be fully active, two major post-translational modifications are required: a C-terminal amide (Tyr37) and a disulfide bond between two cysteine residues found at positions 2 and 7 [6]. […] As is true for other amyloidogenic substrates, such as the amyloid β-protein (Aβ), it is likely that multiple amylin proteases exist that work in ... || We also developed a FRET-based fluorescence dequenching assay, which was successful in many respects, but about which some caution is warranted. First, the particular placement of the fluorescing EDANS and quenching DABCYL groups was designed to be optimal for a known cleavage site hydrolyzed by IDE [26]. This particular placement may not be ideal for other amylin proteases, depending on where they cleave the peptide. Secondly, whereas the FrAB-based AP and FP protocols both yielded kinetic parameters close to one another and also similar in magnitude to those obtained for other IDE substrat ...

Data set [4] is described as follows: Effect of avidin concentration on FP (mP) of FrAB. It counts as binding. The text has this: To assess the suitability of FrAB to the FP protocol, we measured the degree of depolarization (measured in millipolarization units, mP) in uncleaved versus fully cleaved substrate in the absence or presence of excess avidin. […] Not only was substantially less depolarization observed with the intact substrate alone, but the depolarization was reduced even further by the addition of avidin (Figure 1g). As expected from the preceding results, hydrolysis of FrAB as a function of time could be readily monitored using the FP protocol (Figure 1h).
Avidin (and avidin-agarose) is an expensive reagent, and thus it is valuable to establish the minimum avidin/FrAB ratio necessary for reliable results. To that end, we added varying amounts of avidin to a fixed quantity (100 nM) of both cleaved and uncleaved FrAB and assessed the results using the FP protocol. […] Accordingly, we recommend that a minimum avidin/FrAB ratio of ≈10:1 be used in practice.

The target of data set [5] is T1, recombinant human IDE (Homo sapiens, UniProt P14735). Conditions: FrAB substrate, FP protocol (corrected), 1 nM IDE; mean ± SEM of four independent replications.
Protocol: For fluorescence polarization (FP)-based assays, reactions were typically performed directly in low-volume 384-well microplates. To that end, 3× IDE solution (8 µL) was combined with 3× compound or DMSO (8 µL) and allowed to equilibrate for ≥5 min at room temperature. Reactions were initiated by addition of 3× FrAB substrate (8 µL), typically at 100 nM final concentration, except where indicated. After the appropriate incubation period, reactions were terminated by addition of 4× FP Stop Buffer (8 µL; PBS/0.05% biotin-free BSA containing a final concentration of 2 mM 1,10-phenanthroline and 10-fold molar excess avidin (monomer)), triturated ≥3 times to ensure even mixing. […] Fluorescence polarization (λex = 485 nm, λem = 515 nm) was read on a multilabel plate reader (SpectraMAX M5^e, Molecular Devices, San Jose, CA, USA) using the default fluorescence polarization protocol, with the g-factor value maintained at 1.0. high-throughput screening (HTS) being performed manually using a 16-channel pipettor.
(§1) For all assays, results were normalized to data from negative (0% hydrolysis, no IDE) and positive (100% hydrolysis, excess IDE) controls and, where appropriate, expressed as percent hydrolysis. In the case of AP-based assays, percent hydrolysis was a linear function of the percent maximal change in relative fluorescence (RFU; %ΔRFU) between positive and negative controls. […]
Data set [6] concerns the target T1, recombinant human IDE. The conditions noted are these: FrAB substrate, AP protocol, 1 nM IDE; mean ± SEM of four independent replications.
Protocol: The specific activity of recombinant IDE was verified to be within 5% of the value determined from protein concentration (quantified by nanodrop).
To ensure homogeneity of solution concentrations, we mixed all solutions well by gentle rocking on a nutator for ≥10 min at room temp (21–23 °C), and dispensed them manually using 16-channel pipettors fitted with 20-µL FinnTip pipette tips. For experiments conducted in 384-well plates, or transfers thereto, mixing was performed by ≥3 rounds of trituration after dispensing of the final solution. […] After we carefully removed the tubes from the centrifuge to avoid disturbing the pelleted avidin-agarose, the supernatant was transferred to low-volume 384-well microplates (30 µL/well), then fluorescence (λex = 485 nm, λem = 515 nm) was read on a multilabel plate reader (SpectraMAX, Molecular Devices, San Jose, CA, USA).
as §1
A further data set has as its system avidin-agarose. As to the kind of experiment: Avidin-agarose precipitation of fluoresceinated and biotinylated amylin substrates. In kind it is binding. The conditions noted are these: for precipitation by / binding to avidin(-agarose) of uncleaved substrate: uncleaved substrate (- IDE), 1 μM, fluorescence read-out. The source says:
In previous work, we developed robust proteolytic degradation assays for Aβ [18] and glucagon on the basis of synthetic versions of these substrates containing fluorescein at the N‑terminus and biotin (in the form of Lys(Ahx-biotin)) at the C-terminus. This general approach enables a facile method for detecting hydrolysis, which we call avidin-agarose precipitation (AP). Briefly, hydrolysis can be readily quantified by removing the intact (biotinylated and fluoresceinated) substrates with avidin-agarose, then quantifying the remaining (fluoresceinated only) proteolytic fragments by fluorescence. This approach has the advantage of being readily implementable in any laboratory equipped with a fluorescence reader. Although convenient, the AP protocol requires centrifugation and liquid transfer steps that make it less amenable to high-throughput or robotized applications (Figure 1a).
Because the C-terminal portion of human amylin is the most aggregation-prone region of the peptide, we hypothesized that strong secondary structure in this area may have rendered the biotin moiety inaccessible to productive interactions with avidin. […] In one version, substrate 2 (Figure 1c; Table 1), we swapped the positions of the fluorescein and biotin groups, while in the other, substrate 3 (Figure 1d; Table 1), we maintained their placement at the N‑ and C-termini, respectively. […] On the basis of these preliminary results, we elected to use substrate 3 for downstream assay development, renaming it FrAB (fluorescein-rodent amylin-biotin). As expected, hydrolysis of FrAB could be readily monitored using the AP protocol, with hydrolysis resulting in a steady increase in fluorescence signal as a function of time in the presence of low quantities of IDE (Figure 1e).

Data set [7] addresses T1, recombinant human IDE. As to the kind of experiment: Fluorescence change on full cleavage by IDE. It counts as biochemical. Further details: made in house. Conditions: complete hydrolysis by excess IDE, 1 μM substrate, before avidin-agarose precipitation.
Protocol: Substrates were dissolved in DMSO as 1 mM stocks as calculated from the manufacturer-provided weight of lyophylized peptide and its MW, taking into account purity levels. […] The specific activity of recombinant IDE was verified to be within 5% of the value determined from protein concentration (quantified by nanodrop).
For fluorescence-dequenching assays, reactions were typically performed directly in low-volume 384-well microplates, and because the measurements could be monitored continuously, there was no need to stop the reactions. To that end, 3× IDE solution (10 µL) was combined with 3× compound or DMSO (10 µL) and allowed to equilibrate for ≥5 min at room temperature. Reactions were initiated by addition of 3× FrAB substrate (10 µL), typically at 100 nM final concentration. Fluorescence (λex = 336 nm, λem = 490 nm) was monitored repeatedly at frequent intervals (e.g., 30 s) on a multilabel plate reader (SpectraMAX, Molecular Devices, San Jose, CA, USA) using the default fluorescence measurement protocol.

A word on the EC50: it is the concentration at which the effect is half-maximal.

“Also recorded” adds a separate entry of the source. Like-named read-outs stand apart in the source and are kept apart here. Where no end group is shown, it is not given here.

Consider “human amylin: aggregation-prone human form of amylin (KCNTATCATQRLANFLVHSSNNFGAILSSTNVGSNTY; not fully specified (C-terminus, bridges); cysteine pairing not given here; UniProt P10997 34-70, looked up)”, for which, in data set [1] (human amylin), the aggregation propensity result is recorded as “highly aggregation-prone”.
Take “amylin: 37-residue pancreatic peptide hormone, also known as islet amyloid polypeptide (KCNTATCATQRLANFLVHSSNNFGAILSSTNVGSNTY; not fully specified (C-terminus, bridges); cysteine pairing not given here; UniProt P10997 34-70, looked up)”: the “hydrolysis by BACE2” value in data set [2] is “can be hydrolyzed”. Further, the “hydrolysis by IDE” value in data set [3] is “can be hydrolyzed”.
For “insulin: peptide hormone relevant to glucose homeostasis”, the “degradation by IDE” value in data set [3] is “IDE also degrades”.
On to “glucagon: peptide hormone relevant to glucose homeostasis”, for which, in data set [3], the “degradation by IDE” value is listed as “IDE also degrades”.
For fluorescein-rodent amylin-biotin [FrAB], the “depolarization of light by fully cleaved substrate” value in data set [4] (FrAB 1 μM, fully hydrolyzed (+ IDE) vs. uncleaved, FP) was “significantly more than uncleaved substrate”. Moreover, the “effect of avidin on mP of fully cleaved substrate” value in data set [4] (fully cleaved FrAB, 100 nM, FP protocol) was “unaffected by avidin; also recorded: unaffected even by very high concentrations of avidin”. The kcat/KM entry on recombinant human IDE [5] and at recombinant human IDE [6] was “≈ 1 × 10^7 M^-1 s^-1” throughout. The “fluorescence of fully cleaved substrate after avidin-agarose precipitation” value in the data set on avidin-agarose (fully cleaved by IDE, 1 μM substrate, listed as substrate 3) is “remained constant before and after AP; also recorded: strong fluorescence signal after precipitation”. The “precipitation by / binding to avidin(-agarose) of uncleaved substrate” value in the data set with avidin-agarose (listed as substrate 3) was “readily precipitated by avidin-agarose”.
Take “rodent amylin: rodent amylin, far less prone to aggregation than the human peptide”: in data set [1] (rodent amylin vs. human peptide), the aggregation propensity result was “far less prone to aggregation and secondary structure formation than the human peptide”.
“[5-FAM]KCNTATCATQRLANFLVHSSNNFGAILSSTNVGSNTY[Lys(Ahx-biotin)]-amide (disulfide) (5-FAM N-term, Lys(Ahx-biotin) C-term amide, disulfide) [Substrate 1]”: the “fluorescence increase relative to uncleaved substrate (in words)” value with recombinant human IDE [7] was “modest increase in fluorescence”. Further, the “precipitation by / binding to avidin(-agarose) of uncleaved substrate” value is given as “biotin does not bind to avidin” with avidin-agarose and “could not be precipitated by avidin-agarose” with avidin-agarose (listed as substrate 1).
Regarding “avidin: avidin, a 64-kDa tetramer; egg white avidin [reference compound]”, the EC50 in data set [4] (avidin (monomer) concentration, uncleaved FrAB 100 nM, FP, n = 4 (mean ± SEM), read-out: apparent EC50 of avidin for increase in mP) stood at 33.5 ± 7.5 nM. The “avidin concentration at which increase in mP values reaches a plateau” value in data set [4] (avidin (monomer), 100 nM FrAB, FP protocol) is on record as “≈ 1 µM”.

These data come from article PMC7711817, “Quantitative, High-Throughput Assays for Proteolytic Degradation of Amylin” (Methods and Protocols, 2020).
